Measurements as given in US11738026B2, “Combination therapy comprising an ALK2 inhibitor and a JAK2 inhibitor” (INCYTE CORPORATION, priority 2019, dated 2023).

System: C57Bl/6 mice
Experiment: Turpentine-induced anemia in mice on low iron chow; complete blood counts
Assay type: in vivo
Description: C57Bl/6 mice (7-8-week-old, female) were purchased from Charles River Laboratories, Wilmington, Mass., and placed on low iron chow (Test Diet #AIN-76A 5TJK) two weeks prior to beginning study. Mice were continued on this diet through the course of the study. Mice were injected subcutaneously in the intrascapular region of the back of the recipient mouse with sterile filtered turpentine (Aldrich, cat #24245), or sterile saline in a 100 ul volume every week for three weeks. Therapeutic agents were orally administered at a total volume of 10 mL/kg body weight. Mice were administered vehicle (0.5% DMAC: […]) or compound (n=10 per dose group) starting shortly after the first turpentine injection (day 0), and continuing every day until the study termination. Blood was collected via by orbital sinus once weekly, and complete blood counts (CBCs) were determined by hematology instrumentation (Abaxis, model HM5). Statistical analyses were performed using Graphpad Prism software. Mice were handled according to Incyte IACUC protocols.
Together these experiments indicate that ALK2 inhibition can reverse the decreases in RBC counts, hemoglobin, and hematocrit brought on by turpentine generated, inflammation induced anemia, and this anti-anemia efficacy from ALK2 inhibition is possible in the presence of ruxolitinib.

[1] = 30 mg/kg BID, day 21 post first turpentine injection, FIG. 2, change statistically significant by unpaired t-test
[2] = 100 mg/kg QD, 28 days post first turpentine injection, FIG. 1
[3] = mice also dosed with ruxolitinib (90 mg/kg BID), FIG. 2 (Compound A 30 mg/kg BID)

Structure (SMILES) | hematocrit [1] | hemoglobin [1] | red blood cell count [1] | hematocrit [2] | hemoglobin [2] | red blood cell count [2] | anemia brought on by turpentine (100 mg/kg QD, oral, daily from day 0, turpentine s.c. weekly for three weeks) | RBC [3] | hematocrit levels [3] | hemoglobin [3] | anemias brought on by turpentine injection (90 mg/kg BID, oral, in each experiment)
Nc1ncc(-c2ccc([C@@]34C[C@@H]3CN(C3CCOCC3)C4)cc2)cc1C(=O)NC12CCC(O)(CC1)CC2 [Compound A, 2-amino-N-(4-hydroxybicyclo-[2.2.2]octan-1-yl)-5-(4-((1R,5S)-3-(tetrahydro-2H-pyran-4-yl)-3-azabicyclo-[3.1.0]hexan-1-yl)phenyl)nicotinamide] | the same trend was demonstrated | the same trend was demonstrated | the same trend was demonstrated | levels similar to saline (non-turpentine induced anemia) control | levels similar to saline (non-turpentine induced anemia) control | levels similar to saline (non-turpentine induced anemia) control | corrected the anemia brought on by turpentine | significant increases | significant increases | significant increases | 
N#CC[C@H](C1CCCC1)n1cc(-c2ncnc3[nH]ccc23)cn1 [ruxolitinib, (R)-3-(4-(7H-pyrrolo[2,3-d]pyrimidin-4-yl)-1H-pyrazol-1-yl)-3-cyclopentylpropanenitrile, reference compound] |  |  |  |  |  |  |  |  |  |  | exacerbated the anemias
